Results from patent US8741659B2, “Composition for measuring the binding affinity between nucleic acid and test substance, and use thereof” (Osaka University, priority 2007, dated 2014).

How the values were obtained:
RRE [1] = experiment: Displacement assay using Rev peptide after formation of complex with RRE; type: binding, HIV-1; conditions: for fluorescence intensity in displacement assay / recovery rate of the fluorescence intensity: compound and RRE each 2 μM
Protocol: In this Example, a binding affinity between a test substance and RRE was evaluated, with use of the compounds, X2S, X2S(3), X2S(4), X2S(5), X2S(2-Me), and 3,6-X2S(2). As the test substance, Rev protein used in Example 5 was used.
Firstly, in the same manner as in Example 3, the above compounds and RREs were respectively dissolved in cacodylate buffer solutions (sodium cacodylate: 10 mM pH 7.0, NaCl: 100 mM) each at 2 μM, so that an X2S-RRE solution, an X2S(3)-RRE solution, an X2S(4)-RRE solution, an X2S(5)-RRE solution, an X2S(2-Me)-RRE solution, and a 3,6-X2S(2)-RRE solution were prepared.
To each of these solutions, Rev protein was added in stages at 0 μM, 0.4 μM, 0.8 μM, 1.2 μM, 1.6 μM, 2.0 μM, 2.4 μM, 2.8 μM, 3.2 μM, 3.6 μM, and 4.0 μM. Further, a fluorescence intensity was measured at each concentration. The fluorescence intensity was measured in the same manner as that described in Example 14.
Each of FIGS. 43 to 48 is a view illustrating a result of the measurement of a binding affinity between Rev protein and RRE. […] In each of FIGS. 43 to 48, the horizontal axis represents the fluorescence wavelength, whereas the vertical axis represents the fluorescence intensity. […] Further, along the direction of the arrow extending from the curved line at the bottom, the curved lines, showing the respective results, are arranged in order of increasing amount of the test substance which was added.
FIG. 49 is a view illustrating a relationship between an amount of Rev added and a fluorescence intensity, in connection with X2S, X2S(3), X2S(4), X2S(5), X2S(2-Me), and 3,6-X2S(2). Further, FIG. 49 is also a view plotting, based on the results illustrated in FIGS. 43 to 48, the fluorescence intensities detected at the fluorescence wavelength at which the respective fluorescence peaks were observed. FIG. 50 is a graph illustrating a relationship between an amount of Rev added and a recovery rate of the fluorescence intensity. In FIG. 49, the vertical axis represents the fluorescence intensity. In FIG. 50, the vertical axis represents the recovery rate of the fluorescence intensity. In each of FIGS. 49 and 50, the horizontal axis represents the amount of Rev added. That is, each of FIGS. 49 and 50 reflects amounts of the above compounds liberated from RREs due to the addition of Rev.
The recovery rate of the fluorescence intensity was obtained by dividing (i) a maximum value of the fluorescence intensity detected at each Rev concentration ranging from 0 μM to 4.0 μM in each of FIGS. 43 to 48 by (ii) a maximum value of the fluorescence intensity of the curved line at the top in each of FIGS. 43 to 48.
In this Example, 1-Pyrenemethanamide, hydrochloride was used to measure a binding affinity between a test substance and RRE. As the test substance, Rev protein used in Example 5 was used.
Firstly, in the same manner as in Example 3, 1-Pyrenemethanamide, hydrochloride and RRE were dissolved in a cacodylate buffer solution (sodium cacodylate: 10 mM, pH 7.0; NaCl: 100 mM) each at 2 μM, so that a 1-Pyrenemethanamide, hydrochloride-RRE solution was prepared.
To the solution, Rev protein was added in steps at 0 μM, 0.4 μM, 0.8 μM, 1.2 μM, 1.6 μM, 2.0 μM, 2.4 μM, 2.8 μM, 3.2 μM, 3.6 μM, and 4.0 μM. Further, the solution at each concentration was irradiated with light having an excitation wavelength of 340 nm, and a fluorescence intensity was measured. A device used for measuring a fluorescence intensity and a variation in a slit width were the same as those in Example 13.
FIG. 55 is a view illustrating a result of the measurement of a binding affinity between Rev protein and RRE. The horizontal axis represents the fluorescence wavelength, whereas the vertical axis represents the fluorescence intensity. […] Further, along a bottom-to-top direction, the curved lines, showing the respective results, are arranged in order of increasing amount of the test substance which was added. […]

RRE [2] = experiment: Displacement assay using X2S; type: binding, HIV-1; conditions: for binding affinity with respect to RRE / change of fluorescence intensity on addition of test substance: X2S and RRE each 2 μM, test substance 0-4.0 μM; for change of fluorescence intensity on addition of test substance: 453 nm
Description: In this Example, X2S was used to measure a binding affinity between a test substance and RRE. As the test substance, Rev protein (supplied by Professor Takashi MORII, Graduates School of Energy Science, Kyoto University), aminoglycoside antibiotic neomycin (available from Sigma-Aldrich, product number; N-1876) (hereinafter, simply referred to as “neomycin”), and thrombin (available from Bachem, product number; AG H-8550) were used. […] The structure of Rev protein is shown in FIG. 9, and the amino acid sequence of Rev protein is shown in SEQ ID NO: 5. FIG. 9 is a view schematically illustrating the structure of Rev protein. Further, the structure of thrombin is shown in FIG. 10, and the amino acid sequence of thrombin is shown in SEQ ID NO: 6. FIG. 10 is a view schematically illustrating the structure of thrombin.
Firstly, in the same manner as in Example 3, X2S and RRE were dissolved in a cacodylate buffer solution (sodium cacodylate: 10 mM, pH 7.0; NaCl: 100 mM) each at 2 μM. Thus, an X2S-RRE solution was prepared.
To the X2S-RRE solution, Rev protein was added in steps at 0 μM, 0.4 μM, 0.8 μM, 1.2 μM, 1.6 μM, 2.0 μM, 2.4 μM, 2.8 μM, 3.2 μM, 3.6 μM, and 4.0 μM. Further, a fluorescence intensity was measured at each concentration. Similarly, to the X2S-RRE solution, neomycin was added in steps at 0 μM, 0.4 μM, 0.8 μM, 1.2 μM, 1.6 μM, 2.0 μM, 2.4 μM, 2.8 μM, 3.2 μM, 3.6 μM, and 4.0 μM. Further, a fluorescence intensity was measured at each concentration. Similarly, to the X2S-RRE solution, thrombin was added in steps at 0 μM, 0.4 μM, 0.8 μM, 1.2 μM, 1.6 μM, 2.0 μM, 2.4 μM, 2.8 μM, 3.2 μM, 3.6 μM, and 4.0 μM. Further, a fluorescence intensity was measured at each concentration. The fluorescence intensities were measured in the same manner as that described in Example 2.
FIG. 11 is a view illustrating a result of the measurement of a binding affinity between Rev protein and RRE; FIG. 12 is a view illustrating a result of the measurement of a binding affinity between neomycin and RRE; and FIG. 13 is a view illustrating a result of the measurement of a binding affinity between thrombin and RRE. In each of FIGS. 11 to 13, the horizontal axis represents the fluorescence wavelength, whereas the vertical axis represents the fluorescence intensity. […] Furthermore, along the direction of the arrow extending from the curved line at the bottom, the curved lines are arranged in order of increasing amount of the test substance which was added.
FIG. 14 is a view plotting the fluorescence intensities at a fluorescence wavelength of 453 nm shown in the results illustrated in FIGS. 11 to 13. The horizontal axis represents the concentration of each test substance, whereas the vertical axis represents the fluorescence intensity. In FIG. 14, the circle marks represent the result obtained in the case involving use of Rev protein, the square marks represent the result obtained in the case involving use of neomycin, and the triangle marks represent the result obtained in the case involving use of thrombin.
A displacement assay using X2S was performed in the same manner as that described in Example 5, except that, in this Example, fluorescence was measured also when Rev protein was added at concentrations of 4.4 μM and 4.8 μM.
FIG. 16 is a view illustrating the result of the displacement assay using X2S. The horizontal axis represents the fluorescence wavelength, whereas the vertical axis represents the fluorescence intensity.

[3] = system: RNAs of FIG. 2 (SEQ ID NOs: 1 through 3), with or without bulge structure; experiment: Evaluation of binding between xanthone fluorescent molecule and RNA (fluorescence before and after mixing RNA); conditions: 10 μM compound
Protocol: Next, binding between X2S and RNAs was evaluated. The RNAs used in the present example had the structure illustrated in FIG. 2. FIG. 2 is a diagram schematically illustrating the structure of the RNAs used in the present example. The RNAs used in the present example had sequences shown in SEQ ID NOs: 1 through 3.
The symbol N in FIG. 2 represents either a base out of A, U, C, and G, or no base. Thus, in a case where a particular RNA as in FIG. 2 has N representing a base out of A, U, C, and G, the RNA is an RNA formed by hybridization of an RNA having the base sequence shown in SEQ ID NO: 1 with a single strand RNA having the base sequence shown in SEQ ID NO: 2. On the other hand, in a case where a particular RNA as in FIG. 2 has N representing no base, the RNA is an RNA formed by hybridization of an RNA having the base sequence shown in SEQ ID NO: 1 with an RNA having the base sequence shown in SEQ ID NO: 3.
This also applies to other bases. The RNAs used in the present example were purchased from Hokkaido System Science Co., Ltd.
Firstly, X2S was mixed in a cacodylate buffer solution (sodium cacodylate: 10 mM, pH 7.0; NaCl: 100 mM) at 10 μM, so that an X2S solution was obtained. The X2S solution was irradiated with light having an absorption maximum of 371±3 nm, and a fluorescence intensity was then measured. The fluorescence intensity was measured with use of a device (product number: RF-5300PC) available from Shimadzu Corporation. For each type of the RNAs, the fluorescence intensity was measured after the RNA was mixed in the X2S solution at 30 μM.
FIGS. 3 and 4 compare the fluorescence intensities measured before and after the RNA was mixed. […] The horizontal axis represents the fluorescence wavelength, whereas the vertical axis represents the fluorescence intensity. FIG. 4 is an enlarged graph corresponding to the fluorescence intensity of 5 A.U. in FIG. 3 and its vicinity.
Binding between X1S and RNAs was evaluated by a method identical to the method described in Example 2, except that X1S was used instead of X2S. […]

Compound: CC(N)COc1ccc2oc3ccc(OCC(C)N)cc3c(=O)c2c1 (stereo not shown) [X2S(2-Me), 2,7-bis(2-methyl-2-aminoethoxy)xanthen-9-one]
- fluorescence intensity in displacement assay (RRE [1]; Rev protein 0-4.0 μM): lower than that of X2S
- recovery rate of the fluorescence intensity (RRE [1]; Rev protein 0-4.0 μM): highest

Compound: neomycin [reference compound]
- binding affinity with respect to RRE (RRE [2]): lower binding affinity with respect to RRE compared with Rev protein
- change of fluorescence intensity on addition of test substance (RRE [2]): slightly increased the fluorescence intensity

Compound: thrombin
- binding affinity with respect to RRE (RRE [2]): does not bind to RRE
- change of fluorescence intensity on addition of test substance (RRE [2]): hardly increased the fluorescence intensity

Compound: NCCOc1ccc2c(=O)c3ccc(OCCN)cc3oc2c1 [3,6-X2S(2), 3,6-bis(2-aminoethoxy)xanthen-9-one]
- fluorescence intensity in displacement assay (RRE [1]; Rev protein 0-4.0 μM): low
- recovery rate of the fluorescence intensity (RRE [1]; Rev protein 0-4.0 μM): almost equal to that of X2S

Compound: Rev protein: Rev protein, SEQ ID NO: 5, known to bind to RRE; test substance (TRQARRNRRRRWRERQRAAAAR; Human immunodeficiency virus type 1)
- change of fluorescence intensity on addition of Rev protein (RRE [1]; 1-Pyrenemethanamide, hydrochloride and RRE each 2 μM, excitation 340 nm): increased the fluorescence intensity
- binding affinity of Rev protein with respect to RRE (RRE [1]; measured with X2S, X2S(3), X2S(4), X2S(5), X2S(2-Me), 3,6-X2S(2), each 2 μM with RRE): significantly high binding affinity
- change of fluorescence intensity on addition of Rev protein (RRE [1]; xanthone compounds and RRE each 2 μM, Rev protein 0-4.0 μM): increased the fluorescence intensity
- binding affinity with respect to RRE (RRE [2]): significantly high binding affinity
- change of fluorescence intensity on addition of test substance (RRE [2]): increased the fluorescence intensity
- fluorescence intensity recovered (RRE [2]; X2S-RRE solution, FIG. 14, 453 nm): approximately 80%

Compound: NCCOc1ccc2oc3ccccc3c(=O)c2c1 [X1S, 2-(2-aminoethoxy)xanthen-9-one]
- binding to RNAs ([3]; 30 μM RNA (A, U, C, G bulge or no bulge), cacodylate buffer pH 7.0, NaCl 100 mM): binds to RNAs regardless of whether the bulge structure is present
- detected decrease in the fluorescence intensity on mixing RNA ([3]; 30 μM RNA, compared with X2S): small as compared to the case of X2S
